Experimental data as given in patent US12037344B2, “NLRP3 modulators” (INNATE TUMOR IMMUNITY, INC., priority 2018, dated 2024).
pEC50: −log10 of the molar value. Read-outs that look alike come from different tables or passages of the source.

Tests used:
[1] = system: THP-1 cells; assay: Measurement of IL-1β production, hTRF protocol (second alternative procedure), THP-1 cells; assay type: cell-based, human; settings: read-out: NLRP3 hILIB EC50
Protocol: Measurement of IL-1β Production—hTRF Protocol (Second Alternative Procedure)
Serial dilutions of compounds in DMSO were added to low volume 384 well plates at 100 nl/well using an ECHO 550 acoustic dispenser (Labcyte) to achieve final starting concentration of 10 μM in assay.
THP-1 cells in RPMI (Gibco, 11875) media with 10% FBS at a density of 1×10^6 cell/ml in a T175 flask were treated with a final concentration of phorbol 12-myristate 13-acetate (PMA) (Sigma, P1585) of 50 ng/ml overnight at 37° C. at 5% CO2 for differentiation. Cells were harvested the next day after rinsing well with dPBS using 0.5% trypsin. A cell solution was prepared of 1×10^6 cells/ml for 50,000 cells in 50 μl/well in RPMI media with 2% FBS. Cells were plated using a multichannel pipette onto the compound dilutions in Greiner, 384 well, black clear bottom tissue culture treated plates (781090). The plates were incubated in 37° C. incubator at 5% CO2 for 2 hours.
After the 2 hour incubation, the cell plates were spun in the centrifuge for 5 minutes at 1200 rpm. Using the Felix (CyBio), 8 μl of the supernatant was transferred to 384 well, low volume, white proxy plates. (Perkin Elmer, 6008230). A human IL1beta hTRF kit was used to analyze the supernatant (CISBIO, 62HIL1BPEG). The kit instructions were followed for preparing the IL1Beta standard curve and then the antibodies from the kit were diluted 1:40 rather than 1:20 as kit instructed. Once combined, the antibodies were added across the plates, 5 μl/well. The plates were sealed and incubated at 4° C. overnight. The plates were then read on the Perkin Elmer EnVision at 665/615 nm using the hTRF laser.

[2] = molecular target: T1, TLR7 (Homo sapiens, UniProt Q9NYK1); assay: In vitro human TLR7 binding reporter assay (HEK-Blue, NF-kB/AP1-inducible SEAP); assay type: cell-based; settings: read-out: TLR7 Agonist EC50
T1 construct: human HEK-Blue cells co-expressing a TLR7 or TLR8 gene
T1 sequence (Q9NYK1 27-1049): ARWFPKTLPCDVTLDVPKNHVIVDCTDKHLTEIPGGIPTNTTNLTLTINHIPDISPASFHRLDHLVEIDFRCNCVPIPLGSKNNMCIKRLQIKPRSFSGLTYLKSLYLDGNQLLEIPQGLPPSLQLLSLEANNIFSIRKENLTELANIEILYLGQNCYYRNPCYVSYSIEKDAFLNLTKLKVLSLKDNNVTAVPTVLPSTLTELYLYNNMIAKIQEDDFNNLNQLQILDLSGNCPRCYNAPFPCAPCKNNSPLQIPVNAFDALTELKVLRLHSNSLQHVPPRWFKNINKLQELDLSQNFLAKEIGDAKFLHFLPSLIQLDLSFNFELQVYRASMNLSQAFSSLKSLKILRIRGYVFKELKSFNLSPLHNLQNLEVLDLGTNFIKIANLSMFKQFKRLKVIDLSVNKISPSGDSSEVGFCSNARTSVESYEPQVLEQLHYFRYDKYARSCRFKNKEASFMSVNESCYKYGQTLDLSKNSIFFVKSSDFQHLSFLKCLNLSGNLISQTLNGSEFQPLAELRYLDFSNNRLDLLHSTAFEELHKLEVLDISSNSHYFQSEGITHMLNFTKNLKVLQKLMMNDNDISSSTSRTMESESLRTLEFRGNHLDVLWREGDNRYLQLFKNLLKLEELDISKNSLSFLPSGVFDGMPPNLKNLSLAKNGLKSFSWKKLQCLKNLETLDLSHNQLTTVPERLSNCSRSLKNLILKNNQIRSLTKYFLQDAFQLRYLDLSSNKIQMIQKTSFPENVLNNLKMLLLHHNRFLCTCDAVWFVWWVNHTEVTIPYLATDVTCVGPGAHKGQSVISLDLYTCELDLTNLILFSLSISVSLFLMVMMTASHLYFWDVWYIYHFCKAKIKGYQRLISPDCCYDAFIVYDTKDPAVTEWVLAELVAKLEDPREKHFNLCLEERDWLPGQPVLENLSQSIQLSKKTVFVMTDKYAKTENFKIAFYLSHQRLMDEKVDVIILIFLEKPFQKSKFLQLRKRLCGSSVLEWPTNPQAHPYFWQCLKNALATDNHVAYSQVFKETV
Protocol: (§1) In Vitro Human TLR7 and TLR8 Binding Reporter Assays
(§2) Logarithmically-growing human HEK-Blue cells co-expressing a TLR7 or TLR8 gene and a NF-kB/AP1-inducible SEAP (secreted embryonic alkaline phosphatase; Invivogen, San Diego, CA) reporter gene are added to individual wells of a 384-well plate (15,000 cells per 20 μL per well) and maintained for 24 h at 37° C., 5% CO2. Test compounds or DMSO are distributed to separate wells the next day using acoustic liquid handling technology (100 nL per well) and cells are subsequently incubated for 18 h at 37° C., 5% CO2. Cellular SEAP production is measured using an Envision plate reader instrument thirty minutes after adding freshly-made Quanti-Blue reagent (prepared by following manufacturer instructions; Invivogen, San Diego, CA) to the HEK-Blue TLR Nf-kB-SEAP cell reactions. All EC50 values (half-maximal effective concentration) are determined using proprietary data analysis software. Normalized EC50 value=absolute value determined by setting 100% Ymax using a reference standard RLU (relative light unit) values from cells treated with 50 μM of the reference standard.

[3] = molecular target: T2, TLR8 (Homo sapiens, UniProt Q9NR97); assay: In vitro human TLR8 binding reporter assay (HEK-Blue, NF-kB/AP1-inducible SEAP); assay type: cell-based; settings: read-out: TLR8 Agonist EC50
T2 construct: human HEK-Blue cells co-expressing a TLR7 or TLR8 gene
T2 sequence (Q9NR97 27-1041): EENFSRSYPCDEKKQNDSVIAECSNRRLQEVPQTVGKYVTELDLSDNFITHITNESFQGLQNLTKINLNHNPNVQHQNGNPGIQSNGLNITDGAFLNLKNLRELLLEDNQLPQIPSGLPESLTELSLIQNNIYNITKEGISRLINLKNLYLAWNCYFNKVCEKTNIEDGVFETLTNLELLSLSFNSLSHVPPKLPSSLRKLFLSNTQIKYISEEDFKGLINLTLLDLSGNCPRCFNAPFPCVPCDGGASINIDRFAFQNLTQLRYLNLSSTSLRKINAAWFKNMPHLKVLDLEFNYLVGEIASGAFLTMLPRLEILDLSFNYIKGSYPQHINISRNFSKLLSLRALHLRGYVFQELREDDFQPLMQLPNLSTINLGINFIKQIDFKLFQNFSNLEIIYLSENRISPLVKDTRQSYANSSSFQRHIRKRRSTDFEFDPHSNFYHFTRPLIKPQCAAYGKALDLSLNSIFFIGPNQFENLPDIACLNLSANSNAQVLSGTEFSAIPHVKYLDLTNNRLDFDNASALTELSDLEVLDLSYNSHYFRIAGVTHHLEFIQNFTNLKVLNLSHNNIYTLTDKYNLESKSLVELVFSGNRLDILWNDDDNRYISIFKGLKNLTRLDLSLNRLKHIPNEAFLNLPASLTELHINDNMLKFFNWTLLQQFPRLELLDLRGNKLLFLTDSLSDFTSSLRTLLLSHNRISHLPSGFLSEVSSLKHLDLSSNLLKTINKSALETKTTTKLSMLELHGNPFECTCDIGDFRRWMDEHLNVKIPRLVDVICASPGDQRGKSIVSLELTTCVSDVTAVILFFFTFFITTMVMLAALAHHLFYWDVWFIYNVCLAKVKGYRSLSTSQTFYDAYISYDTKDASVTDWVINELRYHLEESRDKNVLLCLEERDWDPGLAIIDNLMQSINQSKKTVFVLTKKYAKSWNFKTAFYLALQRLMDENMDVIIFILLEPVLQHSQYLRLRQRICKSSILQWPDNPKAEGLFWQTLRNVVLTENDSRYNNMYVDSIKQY
Protocol: as §1, §2

[4] = Homo sapiens, THP-1, IL-1β production, human
[5] = Homo sapiens, THP-1, IL-1β production, human cells

Nc1nc2cc(-c3cc[nH]n3)ccc2c2nn(CCO)cc12 [Example 209, 2-(4-amino-7-(1H-pyrazol-3-yl)-2H-pyrazolo[4,3-c]quinolin-2-yl)ethan-1-ol]
pEC50 [1, 4]: 6.72
pEC50 ([2]; activity range class): < 4.00
pEC50 ([3]; activity range class): < 4.00

CC(CC(=O)NCCO)n1cc2c(N)nc3cc(-c4cc[nH]n4)ccc3c2n1 (stereo not drawn) [Example 620]
pEC50 [1, 5]: 4.54
pEC50 ([2]; activity range): < 4.00
pEC50 ([3]; activity range): < 4.00

Nc1nc2cc(-c3cc[nH]n3)ccc2c2cn(Cc3cscn3)nc12 [Example 168]
pEC50 [1, 4]: 6.70
pEC50 ([2]; activity range class): < 4.00
pEC50 ([3]; activity range class): 4.00 to 4.70

CC(C(=O)N1CC(F)(F)C1)n1cc2c(N)nc3cc(-c4ccn[nH]4)ccc3c2n1 (stereo not drawn) [Example 577]
pEC50 [1, 5]: 5.63
pEC50 ([2]; activity range): < 4.00
pEC50 ([3]; activity range): < 4.00

CCC(CO)Cn1cc2c(N)nc3cc(-c4cc[nH]n4)ccc3c2n1 (stereo not drawn) [Example 356]
pEC50 [1, 4]: 6.08
pEC50 ([2]; activity range class): < 4.00
pEC50 ([3]; activity range class): < 4.00

Nc1nc2cc(-c3cc[nH]n3)ccc2c2nn(C3COCC3O)cc12 (stereo not drawn) [Example 323]
pEC50 [1, 4]: 6.11
pEC50 ([2]; activity range class): < 4.00
pEC50 ([3]; activity range class): < 4.00

CNC(=O)CC(C)n1cc2c(N)nc3cc(-c4cc[nH]n4)ccc3c2n1 (stereo not drawn) [Example 621]
pEC50 [1, 5]: 5.73
pEC50 ([2]; activity range): < 4.00
pEC50 ([3]; activity range): < 4.00

CN(Cc1cc2c(N)nc3cc(-c4cc[nH]n4)ccc3c2[nH]1)[C@H]1CCOC1 [Example 491]
pEC50 [1, 5]: 5.93
pEC50 ([2]; activity range): < 4.00
pEC50 ([3]; activity range): < 4.00

Nc1nc2cc(-c3cc[nH]n3)ccc2c2nn(CC(O)CF)cc12 (single isomer, unassigned) [Example 377]
pEC50 ([1]; IL-1β production, human): 6.35
pEC50 ([2]; activity range class): < 4.00
pEC50 ([3]; activity range class): < 4.00

CC(C(=O)N(C)CCO)n1cc2c(N)nc3cc(-c4ccn[nH]4)ccc3c2n1 (stereo not drawn) [Example 584]
pEC50 [1, 5]: 5.30
pEC50 ([2]; activity range): < 4.00
pEC50 ([3]; activity range): < 4.00

CC(=O)NC(C)Cn1cc2c(N)nc3cc(-c4ccn[nH]4)ccc3c2n1 (stereo not drawn) [Example 254]
pEC50 [1, 4]: 4.69
pEC50 ([2]; activity range class): < 4.00
pEC50 ([3]; activity range class): < 4.00

CCCn1cc2c(n1)c(N)nc1cc(-c3ccn[nH]3)ccc12 [Example 187]
pEC50 [1, 4]: 6.66
pEC50 ([2]; activity range class): < 4.00
pEC50 ([3]; activity range class): < 4.00

CS(=O)(=O)NCCCn1cc2c(N)nc3cc(-c4ccn[nH]4)ccc3c2n1 [Example 586]
pEC50 [1, 5]: 5.66
pEC50 ([2]; activity range): < 4.00
pEC50 ([3]; activity range): < 4.00

Nc1nc2cc(-c3cc[nH]n3)ccc2c2nn(CCNC(=O)c3cccnc3)cc12 [Example 204]
pEC50 [1, 4]: 5.59
pEC50 ([2]; activity range class): < 4.00
pEC50 ([3]; activity range class): < 4.00

CC(C)NC(=O)CCn1cc2c(N)nc3cc(-c4cc[nH]n4)ccc3c2n1 [Example 510]
pEC50 [1, 5]: 5.61
pEC50 ([2]; activity range): < 4.00
pEC50 ([3]; activity range): < 4.00

COCC(=O)NC(C)Cn1cc2c(N)nc3cc(-c4ccn[nH]4)ccc3c2n1 (stereo not drawn) [Example 296]
pEC50 [1, 4]: 5.77
pEC50 ([2]; activity range class): < 4.00
pEC50 ([3]; activity range class): < 4.00

Nc1nc2cc(-c3cc[nH]n3)ccc2c2nn(CCNC(=O)C3CCCCO3)cc12 (stereo not drawn) [Example 199]
pEC50 [1, 4]: 5.35
pEC50 ([2]; activity range class): < 4.00
pEC50 ([3]; activity range class): < 4.00

Nc1nc2cc(-c3cc[nH]n3)ccc2c2cn(CCNC(=O)CO)nc12 [Example 35]
pEC50 [1, 4]: 4.68
pEC50 ([2]; activity range class): 4.00 to 4.70
pEC50 ([3]; activity range class): < 4.00

NC(=O)C1(Cn2cc3c(n2)c(N)nc2cc(-c4cc[nH]n4)ccc23)CC1 [Example 527]
pEC50 [1, 5]: 6.40
pEC50 ([2]; activity range): < 4.00
pEC50 ([3]; activity range): < 4.00

Nc1nc2cc(-c3cc[nH]n3)ccc2c2nn(C3CCCOC3)cc12 (stereo not drawn) [Example 312]
pEC50 [1, 4]: 6.66
pEC50 ([2]; activity range class): < 4.00
pEC50 ([3]; activity range class): < 4.00

CC(N)CCn1cc2c(N)nc3cc(-n4cccn4)ccc3c2n1 (stereo not drawn) [Example 426]
pEC50 [1, 5]: 5.72
pEC50 ([2]; activity range): < 4.00
pEC50 ([3]; activity range): < 4.00

Cn1ccnc1C(=O)NCCn1cc2c(n1)c(N)nc1cc(-c3cc[nH]n3)ccc12 [Example 99]
pEC50 [1, 4]: 6.34
pEC50 ([2]; activity range class): 4.00 to 4.70
pEC50 ([3]; activity range class): < 4.00

Nc1nc2cc(-c3cc[nH]n3)ccc2c2cn(CC(=O)N[C@@H]3CCOC3)nc12 [Example 544]
pEC50 ([1]; IL-1β production, human cells): 5.36
pEC50 ([2]; activity range): < 4.00
pEC50 ([3]; activity range): < 4.00
